These compounds were tested against T1, TNIK (Homo sapiens, UniProt Q9UKE5) (assay: ADP-Glo Kinase Assay, inhibition activity on TNIK). Details: read-out: TNIK.
T1 construct: purchased Promega V4158
Type: biochemical
Method: The inhibition activities on TNIK, IKKε and TBK1 were measured by a luminometer, TNIK/IKKε/TBK1 Kinase Enzyme System (Promega, Ca# V4158; Invitrogen, PR8031B, Promega, Ca# V3991) and ADP-Glo Kinase Assay using ADP-Glo™ Kinase Analysis Kit (Promega, Ca# V9101) and a kinase reaction buffer [40 mM Tris(pH 7.5), 20 mM MgCl2, 0.1 mg/mL BSA] in accordance with the manufacturer's protocol.

T1 sequence (Q9UKE5 1-367 limits assumed): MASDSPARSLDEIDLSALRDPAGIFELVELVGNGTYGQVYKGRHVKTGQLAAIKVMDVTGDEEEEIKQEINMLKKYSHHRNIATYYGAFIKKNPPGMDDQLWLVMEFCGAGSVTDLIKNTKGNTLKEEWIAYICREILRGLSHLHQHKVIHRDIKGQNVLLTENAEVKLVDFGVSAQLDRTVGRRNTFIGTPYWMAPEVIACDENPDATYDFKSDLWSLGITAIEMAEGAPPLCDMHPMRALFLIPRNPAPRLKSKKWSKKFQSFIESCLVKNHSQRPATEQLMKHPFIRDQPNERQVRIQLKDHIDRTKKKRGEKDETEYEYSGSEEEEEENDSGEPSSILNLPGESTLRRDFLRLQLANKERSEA

| SMILES | IC50 |
| --- | --- |
| O=C(Nc1ccc(-c2ccccc2)c2c1C(=O)NC2)c1ccc(NCCN2CCOCC2)cc1 [Example 322, 4-((2-Morpholinoethyl)amino)-N-(3-oxo-7-phenylisoindolin-4-yl)benzamide] | 340 nM |
| O=C(Nc1ccc(-c2ccccc2)c2c1C(=O)NC2)c1ccc(NCCCN2CCOCC2)cc1 [Example 327, 4-((3-Morpholinopropyl)amino)-N-(3-oxo-7-phenylisoindolin-4-yl)benzamide] | 700 nM |
| CN1CCN(CCCNc2ccc(C(=O)Nc3ccc(-c4ccccc4)c4c3C(=O)NC4)cc2)CC1 [Example 329, 4-((3-(4-Methylpiperazin-1-yl)propyl)amino)-N-(3-oxo-7-phenylisoindolin-4-yl)benzamide] | 440 nM |
| COCCCNc1ccc(C(=O)Nc2ccc(-c3ccccc3)c3c2C(=O)NC3)cc1 [Example 331, 4-((3-Methoxypropyl)amino)-N-(3-oxo-7-phenylisoindolin-4-yl) benzamide] | 790 nM |
| O=C(Nc1ccc(-c2ccccc2)c2c1C(=O)NC2)c1ccc(NCc2cccs2)cc1 [Example 333, N-(3-oxo-7-phenylisoindolin-4-yl)-4-((thiophen-2-ylmethyl)amino)benzamide] | 1600 nM |
| CN(C)CCCNc1ccc(C(=O)Nc2ccc(-c3ccco3)c3c2C(=O)NC3)cc1 [Example 335, 4-((3-(Dimethylamino)propyl)amino)-N-(7-(furan-2-yl)-3-oxoisoindolin-4-yl)benzamide] | 430 nM |
| COCCCNc1ccc(C(=O)Nc2ccc(-c3ccco3)c3c2C(=O)NC3)cc1 [Example 336, N-(7-(furan-2-yl)-3-oxoisoindolin-4-yl)-4-((3-methoxypropyl)amino)benzamide] | 980 nM |
| O=C(Nc1ccc(-c2ccco2)c2c1C(=O)NC2)c1ccc(NCCCN2CCOCC2)cc1 [Example 337, N-(7-(furan-2-yl)-3-oxoisoindolin-4-yl)-4-((3-morpholinopropyl)amino)benzamide] | 560 nM |
| O=C(Nc1ccc(-c2ccco2)c2c1C(=O)NC2)c1ccc(NCCCN2CCCCC2)cc1 [Example 338, N-(7-(furan-2-yl)-3-oxoisoindolin-4-yl)-4-((3-(piperidin-1-yl)propyl)amino)benzamide] | 370 nM |

Now from value to compound:

| IC50 | SMILES |
| --- | --- |
| 370 nM | COc1ccccc1-c1ccc(NC(=O)c2ccc(N3CCOCC3)cc2)c2c1CNC2=O [Example 323, N-(7-(2-methoxyphenyl)-3-oxoisoindolin-4-yl)-4-morpholino benzamide] |
| 300 nM | COCCNc1ccc(C(=O)Nc2ccc(-c3ccccc3OC)c3c2C(=O)NC3)cc1 [Example 324, 4-((2-Methoxyethyl)amino)-N-(7-(2-methoxyphenyl)-3-oxoisoindolin-4-yl)benzamide] |
| 370 nM | COc1ccccc1-c1ccc(NC(=O)c2ccc(N3CCN(C)CC3)cc2)c2c1CNC2=O [Example 325, N-(7-(2-methoxyphenyl)-3-oxoisoindolin-4-yl)-4-(4-methylpiperazin-1-yl)benzamide] |
| 93 nM | COc1ccccc1-c1ccc(NC(=O)c2ccc(NCCN3CCOCC3)cc2)c2c1CNC2=O [Example 326] |
| 400 nM | COc1ccccc1-c1ccc(NC(=O)c2ccc(NCCCN3CCOCC3)cc2)c2c1CNC2=O [Example 328] |
| 510 nM | COc1ccccc1-c1ccc(NC(=O)c2ccc(NCCCN3CCN(C)CC3)cc2)c2c1CNC2=O [Example 330, N-(7-(2-methoxyphenyl)-3-oxoisoindolin-4-yl)-4-((3-(4-methylpiperazin-1-yl)propyl)amino)benzamide] |
| 510 nM | COCCCNc1ccc(C(=O)Nc2ccc(-c3ccccc3OC)c3c2C(=O)NC3)cc1 [Example 332, N-(7-(2-methoxyphenyl)-3-oxoisoindolin-4-yl)-4-((3-methoxypropyl)amino)benzamide] |
| 410 nM | COc1ccccc1-c1ccc(NC(=O)c2ccc(NCc3cccs3)cc2)c2c1CNC2=O [Example 334, N-(7-(2-methoxyphenyl)-3-oxoisoindolin-4-yl)-4-((thiophen-2-ylmethyl)amino)benzamide] |

— patent US9856216B2, “Compounds as TNIK, IKKε and TBK1 inhibitors and pharmaceutical composition comprising same” (GREEN CROSS CORPORATION, priority 2015, dated 2018)
